Legend:
Details in all cases: Compound concentration 10 µM
[1] = biological target: T1, 5-hydroxytryptamine receptor 3A (Homo sapiens) (UniProt P46098)
T1 sequence (whole entry): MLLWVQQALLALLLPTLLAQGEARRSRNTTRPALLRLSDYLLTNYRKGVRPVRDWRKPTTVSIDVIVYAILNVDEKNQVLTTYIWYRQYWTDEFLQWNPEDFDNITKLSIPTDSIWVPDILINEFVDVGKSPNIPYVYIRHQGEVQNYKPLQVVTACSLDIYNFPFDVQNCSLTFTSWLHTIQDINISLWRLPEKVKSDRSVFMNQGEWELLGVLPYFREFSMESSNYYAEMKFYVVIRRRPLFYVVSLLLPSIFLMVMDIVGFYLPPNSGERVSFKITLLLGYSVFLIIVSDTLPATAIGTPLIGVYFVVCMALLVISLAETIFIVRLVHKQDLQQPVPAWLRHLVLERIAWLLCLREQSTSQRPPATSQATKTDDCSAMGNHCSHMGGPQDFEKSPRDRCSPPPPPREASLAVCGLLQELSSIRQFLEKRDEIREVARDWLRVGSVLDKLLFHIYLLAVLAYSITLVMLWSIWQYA
Description: PDSP Primary Binding target: HTR3A - Compounds are tested at 10 uM concentration, plate are incubated at room temperature in the dark for 90 minutes. Reaction are stopped by vacuum filtration onto 0.3% polyethyleneimine soaked filter mats using Filtermate harvester. Scintilation cocktail is then melted onto microwave-dried filters on a hot plate and the radio activity is counted in Microbia counter.

[2] = biological target: Sodium-dependent noradrenaline transporter (Homo sapiens) (UniProt P23975)
Description: PDSP Primary Binding target: SLC6A2 - Compounds are tested at 10 uM concentration, plate are incubated at room temperature in the dark for 90 minutes. Reaction are stopped by vacuum filtration onto 0.3% polyethyleneimine soaked filter mats using Filtermate harvester. Scintilation cocktail is then melted onto microwave-dried filters on a hot plate and the radio activity is counted in Microbia counter.

[3] = biological target: T2, Alpha-1B adrenergic receptor (Homo sapiens) (UniProt P35368)
T2 sequence (whole entry): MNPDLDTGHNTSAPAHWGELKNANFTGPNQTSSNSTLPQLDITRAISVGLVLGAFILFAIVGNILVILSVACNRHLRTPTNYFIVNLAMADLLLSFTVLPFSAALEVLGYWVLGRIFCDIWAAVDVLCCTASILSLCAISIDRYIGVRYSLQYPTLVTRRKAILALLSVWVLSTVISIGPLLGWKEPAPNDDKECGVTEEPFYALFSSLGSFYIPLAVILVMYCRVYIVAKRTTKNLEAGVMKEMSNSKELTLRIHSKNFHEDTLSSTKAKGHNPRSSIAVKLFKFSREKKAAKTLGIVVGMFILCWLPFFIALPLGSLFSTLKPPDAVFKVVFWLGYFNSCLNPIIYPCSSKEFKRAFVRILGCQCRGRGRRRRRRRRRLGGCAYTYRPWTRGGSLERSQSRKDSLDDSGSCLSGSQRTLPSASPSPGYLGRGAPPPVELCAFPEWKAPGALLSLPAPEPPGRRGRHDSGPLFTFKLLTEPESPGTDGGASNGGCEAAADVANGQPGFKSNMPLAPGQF
Description: PDSP Primary Binding target: ADRA1B - Compounds are tested at 10 uM concentration, plate are incubated at room temperature in the dark for 90 minutes. Reaction are stopped by vacuum filtration onto 0.3% polyethyleneimine soaked filter mats using Filtermate harvester. Scintilation cocktail is then melted onto microwave-dried filters on a hot plate and the radio activity is counted in Microbia counter.

[4] = biological target: D(1A) dopamine receptor (Homo sapiens) (UniProt P21728)
Description: PDSP Primary Binding target: DRD1 - Compounds are tested at 10 uM concentration, plate are incubated at room temperature in the dark for 90 minutes. Reaction are stopped by vacuum filtration onto 0.3% polyethyleneimine soaked filter mats using Filtermate harvester. Scintilation cocktail is then melted onto microwave-dried filters on a hot plate and the radio activity is counted in Microbia counter.

[5] = biological target: T3, Alpha-2A adrenergic receptor (Homo sapiens) (UniProt P08913)
T3 sequence (whole entry): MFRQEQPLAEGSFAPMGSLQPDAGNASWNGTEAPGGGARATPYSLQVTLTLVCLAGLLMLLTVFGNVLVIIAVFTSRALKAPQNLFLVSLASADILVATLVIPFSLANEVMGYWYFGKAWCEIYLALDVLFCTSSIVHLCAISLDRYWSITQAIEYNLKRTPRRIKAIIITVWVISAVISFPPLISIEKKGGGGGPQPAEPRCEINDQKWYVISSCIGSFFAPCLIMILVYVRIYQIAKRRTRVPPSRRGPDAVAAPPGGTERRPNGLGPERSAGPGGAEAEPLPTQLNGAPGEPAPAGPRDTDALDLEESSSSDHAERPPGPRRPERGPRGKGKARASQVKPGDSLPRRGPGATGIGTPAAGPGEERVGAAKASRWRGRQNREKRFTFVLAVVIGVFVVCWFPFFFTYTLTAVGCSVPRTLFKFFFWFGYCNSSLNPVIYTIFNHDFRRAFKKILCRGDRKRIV
Description: PDSP Primary Binding target: ADRA2A - Compounds are tested at 10 uM concentration, plate are incubated at room temperature in the dark for 90 minutes. Reaction are stopped by vacuum filtration onto 0.3% polyethyleneimine soaked filter mats using Filtermate harvester. Scintilation cocktail is then melted onto microwave-dried filters on a hot plate and the radio activity is counted in Microbia counter.

[6] = biological target: Sigma non-opioid intracellular receptor 1 (Homo sapiens) (UniProt Q99720)
Description: PDSP Primary Binding target: SIGMAR1 - Compounds are tested at 10 uM concentration, plate are incubated at room temperature in the dark for 90 minutes. Reaction are stopped by vacuum filtration onto 0.3% polyethyleneimine soaked filter mats using Filtermate harvester. Scintilation cocktail is then melted onto microwave-dried filters on a hot plate and the radio activity is counted in Microbia counter.

[7] = biological target: Histamine H2 receptor (Homo sapiens) (UniProt P25021)
Description: PDSP Primary Binding target: HRH2 - Compounds are tested at 10 uM concentration, plate are incubated at room temperature in the dark for 90 minutes. Reaction are stopped by vacuum filtration onto 0.3% polyethyleneimine soaked filter mats using Filtermate harvester. Scintilation cocktail is then melted onto microwave-dried filters on a hot plate and the radio activity is counted in Microbia counter.

[8] = biological target: Sodium-dependent serotonin transporter (Homo sapiens) (UniProt P31645)
Description: PDSP Primary Binding target: SLC6A4 - Compounds are tested at 10 uM concentration, plate are incubated at room temperature in the dark for 90 minutes. Reaction are stopped by vacuum filtration onto 0.3% polyethyleneimine soaked filter mats using Filtermate harvester. Scintilation cocktail is then melted onto microwave-dried filters on a hot plate and the radio activity is counted in Microbia counter.

[9] = biological target: T4, Muscarinic acetylcholine receptor M4 (Homo sapiens) (UniProt P08173)
T4 sequence (whole entry): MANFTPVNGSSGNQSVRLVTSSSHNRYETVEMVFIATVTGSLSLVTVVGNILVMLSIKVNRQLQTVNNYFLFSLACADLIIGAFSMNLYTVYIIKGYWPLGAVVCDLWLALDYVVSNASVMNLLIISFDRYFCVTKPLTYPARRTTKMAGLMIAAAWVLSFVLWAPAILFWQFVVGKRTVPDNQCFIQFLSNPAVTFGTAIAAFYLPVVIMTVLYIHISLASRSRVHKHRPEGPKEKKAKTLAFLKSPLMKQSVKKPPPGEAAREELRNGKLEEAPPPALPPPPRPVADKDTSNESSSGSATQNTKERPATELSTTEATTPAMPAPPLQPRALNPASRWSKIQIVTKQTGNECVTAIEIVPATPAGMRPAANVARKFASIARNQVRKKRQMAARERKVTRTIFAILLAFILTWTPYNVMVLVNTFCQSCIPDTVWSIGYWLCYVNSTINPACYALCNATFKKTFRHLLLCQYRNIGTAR
Description: PDSP Primary Binding target: CHRM4 - Compounds are tested at 10 uM concentration, plate are incubated at room temperature in the dark for 90 minutes. Reaction are stopped by vacuum filtration onto 0.3% polyethyleneimine soaked filter mats using Filtermate harvester. Scintilation cocktail is then melted onto microwave-dried filters on a hot plate and the radio activity is counted in Microbia counter.

[10] = biological target: 5-hydroxytryptamine receptor 1E (Homo sapiens) (UniProt P28566)
Description: PDSP Primary Binding target: HTR1E - Compounds are tested at 10 uM concentration, plate are incubated at room temperature in the dark for 90 minutes. Reaction are stopped by vacuum filtration onto 0.3% polyethyleneimine soaked filter mats using Filtermate harvester. Scintilation cocktail is then melted onto microwave-dried filters on a hot plate and the radio activity is counted in Microbia counter.

[11] = biological target: Translocator protein (Homo sapiens) (UniProt P30536)
Description: PDSP Primary Binding target: TSPO - Compounds are tested at 10 uM concentration, plate are incubated at room temperature in the dark for 90 minutes. Reaction are stopped by vacuum filtration onto 0.3% polyethyleneimine soaked filter mats using Filtermate harvester. Scintilation cocktail is then melted onto microwave-dried filters on a hot plate and the radio activity is counted in Microbia counter.

[12] = biological target: Histamine H1 receptor (Homo sapiens) (UniProt P35367)
Description: PDSP Primary Binding target: HRH1 - Compounds are tested at 10 uM concentration, plate are incubated at room temperature in the dark for 90 minutes. Reaction are stopped by vacuum filtration onto 0.3% polyethyleneimine soaked filter mats using Filtermate harvester. Scintilation cocktail is then melted onto microwave-dried filters on a hot plate and the radio activity is counted in Microbia counter.

[13] = biological target: 5-hydroxytryptamine receptor 5A (Homo sapiens) (UniProt P47898)
Description: PDSP Primary Binding target: HTR5A - Compounds are tested at 10 uM concentration, plate are incubated at room temperature in the dark for 90 minutes. Reaction are stopped by vacuum filtration onto 0.3% polyethyleneimine soaked filter mats using Filtermate harvester. Scintilation cocktail is then melted onto microwave-dried filters on a hot plate and the radio activity is counted in Microbia counter.

[14] = biological target: Sodium-dependent dopamine transporter (Homo sapiens) (UniProt Q01959)
Description: PDSP Primary Binding target: SLC6A3 - Compounds are tested at 10 uM concentration, plate are incubated at room temperature in the dark for 90 minutes. Reaction are stopped by vacuum filtration onto 0.3% polyethyleneimine soaked filter mats using Filtermate harvester. Scintilation cocktail is then melted onto microwave-dried filters on a hot plate and the radio activity is counted in Microbia counter.

[15] = biological target: D(2) dopamine receptor (Homo sapiens) (UniProt P14416)
D(2) dopamine receptor (Homo sapiens), sequence (P14416 whole entry): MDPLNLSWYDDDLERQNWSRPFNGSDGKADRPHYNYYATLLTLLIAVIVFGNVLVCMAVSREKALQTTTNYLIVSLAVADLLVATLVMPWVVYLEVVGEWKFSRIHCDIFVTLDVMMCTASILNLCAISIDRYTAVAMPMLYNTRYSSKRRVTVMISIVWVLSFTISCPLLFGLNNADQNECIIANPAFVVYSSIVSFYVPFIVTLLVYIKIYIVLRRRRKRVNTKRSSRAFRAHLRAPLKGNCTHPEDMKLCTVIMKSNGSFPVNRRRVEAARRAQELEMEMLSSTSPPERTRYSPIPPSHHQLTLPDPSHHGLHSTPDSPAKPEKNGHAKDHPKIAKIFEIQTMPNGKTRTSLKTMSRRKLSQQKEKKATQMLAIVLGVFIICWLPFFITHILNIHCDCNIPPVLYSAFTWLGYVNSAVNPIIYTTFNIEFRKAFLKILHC
Description: PDSP Primary Binding target: DRD2 - Compounds are tested at 10 uM concentration, plate are incubated at room temperature in the dark for 90 minutes. Reaction are stopped by vacuum filtration onto 0.3% polyethyleneimine soaked filter mats using Filtermate harvester. Scintilation cocktail is then melted onto microwave-dried filters on a hot plate and the radio activity is counted in Microbia counter.

D(1A) dopamine receptor (Homo sapiens), sequence (P21728 whole entry): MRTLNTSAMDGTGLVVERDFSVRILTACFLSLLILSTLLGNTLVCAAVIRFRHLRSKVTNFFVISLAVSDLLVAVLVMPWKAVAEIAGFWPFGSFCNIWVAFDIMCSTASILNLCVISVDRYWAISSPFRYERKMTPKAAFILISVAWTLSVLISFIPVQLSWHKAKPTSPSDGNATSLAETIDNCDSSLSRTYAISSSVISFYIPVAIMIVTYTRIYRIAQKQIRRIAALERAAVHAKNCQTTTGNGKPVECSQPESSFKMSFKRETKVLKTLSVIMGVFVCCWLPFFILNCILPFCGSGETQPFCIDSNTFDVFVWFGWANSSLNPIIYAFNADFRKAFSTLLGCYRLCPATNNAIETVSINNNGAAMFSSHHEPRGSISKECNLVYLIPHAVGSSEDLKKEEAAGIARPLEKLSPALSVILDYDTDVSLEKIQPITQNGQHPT
5-hydroxytryptamine receptor 5A (Homo sapiens), sequence (P47898 whole entry): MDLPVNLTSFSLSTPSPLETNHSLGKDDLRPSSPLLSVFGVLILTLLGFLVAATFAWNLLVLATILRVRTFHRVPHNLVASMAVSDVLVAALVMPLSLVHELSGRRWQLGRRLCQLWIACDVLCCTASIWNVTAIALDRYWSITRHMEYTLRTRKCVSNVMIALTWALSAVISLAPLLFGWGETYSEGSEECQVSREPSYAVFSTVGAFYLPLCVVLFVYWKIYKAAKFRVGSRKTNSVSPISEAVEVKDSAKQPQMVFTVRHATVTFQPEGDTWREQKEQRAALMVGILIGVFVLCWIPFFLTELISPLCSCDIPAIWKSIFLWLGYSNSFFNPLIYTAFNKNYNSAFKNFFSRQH
5-hydroxytryptamine receptor 1E (Homo sapiens), sequence (P28566 whole entry): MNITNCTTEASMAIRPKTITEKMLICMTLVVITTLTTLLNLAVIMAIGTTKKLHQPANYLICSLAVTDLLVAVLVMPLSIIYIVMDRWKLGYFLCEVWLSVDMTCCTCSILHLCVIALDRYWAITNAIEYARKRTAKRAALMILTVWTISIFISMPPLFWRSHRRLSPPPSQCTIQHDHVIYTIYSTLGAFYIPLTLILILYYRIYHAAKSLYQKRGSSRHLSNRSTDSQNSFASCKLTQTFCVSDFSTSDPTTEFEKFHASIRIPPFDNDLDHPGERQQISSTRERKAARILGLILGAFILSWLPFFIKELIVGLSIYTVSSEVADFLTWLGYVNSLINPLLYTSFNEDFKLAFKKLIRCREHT
Histamine H1 receptor (Homo sapiens), sequence (P35367 whole entry): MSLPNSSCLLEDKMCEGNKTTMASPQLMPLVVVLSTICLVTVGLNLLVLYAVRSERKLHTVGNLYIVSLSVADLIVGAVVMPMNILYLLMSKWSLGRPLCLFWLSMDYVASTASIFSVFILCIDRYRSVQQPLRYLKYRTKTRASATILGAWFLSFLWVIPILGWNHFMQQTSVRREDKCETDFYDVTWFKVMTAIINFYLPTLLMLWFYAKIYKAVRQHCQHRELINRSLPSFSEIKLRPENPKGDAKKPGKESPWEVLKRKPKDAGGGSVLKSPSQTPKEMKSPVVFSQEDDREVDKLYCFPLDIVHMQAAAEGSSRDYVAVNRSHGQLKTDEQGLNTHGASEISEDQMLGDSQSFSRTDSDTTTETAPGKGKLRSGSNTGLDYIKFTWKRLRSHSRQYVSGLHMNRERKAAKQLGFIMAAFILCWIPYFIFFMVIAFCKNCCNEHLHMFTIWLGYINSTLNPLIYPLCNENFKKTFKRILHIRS
Translocator protein (Homo sapiens), sequence (P30536 whole entry): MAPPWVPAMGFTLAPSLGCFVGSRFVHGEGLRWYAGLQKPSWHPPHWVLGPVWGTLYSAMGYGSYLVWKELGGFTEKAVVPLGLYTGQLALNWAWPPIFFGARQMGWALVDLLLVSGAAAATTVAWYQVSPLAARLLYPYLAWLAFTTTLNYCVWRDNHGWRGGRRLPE
Histamine H2 receptor (Homo sapiens), sequence (P25021 whole entry): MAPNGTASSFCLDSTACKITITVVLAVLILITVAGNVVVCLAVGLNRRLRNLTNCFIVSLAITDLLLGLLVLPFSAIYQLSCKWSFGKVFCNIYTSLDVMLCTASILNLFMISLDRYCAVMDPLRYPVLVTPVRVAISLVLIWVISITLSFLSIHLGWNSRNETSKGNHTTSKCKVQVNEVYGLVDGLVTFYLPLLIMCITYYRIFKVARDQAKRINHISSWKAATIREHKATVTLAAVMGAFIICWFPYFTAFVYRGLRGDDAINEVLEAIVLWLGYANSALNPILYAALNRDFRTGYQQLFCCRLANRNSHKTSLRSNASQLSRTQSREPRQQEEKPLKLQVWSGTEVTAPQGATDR
Sodium-dependent noradrenaline transporter (Homo sapiens), sequence (P23975 whole entry): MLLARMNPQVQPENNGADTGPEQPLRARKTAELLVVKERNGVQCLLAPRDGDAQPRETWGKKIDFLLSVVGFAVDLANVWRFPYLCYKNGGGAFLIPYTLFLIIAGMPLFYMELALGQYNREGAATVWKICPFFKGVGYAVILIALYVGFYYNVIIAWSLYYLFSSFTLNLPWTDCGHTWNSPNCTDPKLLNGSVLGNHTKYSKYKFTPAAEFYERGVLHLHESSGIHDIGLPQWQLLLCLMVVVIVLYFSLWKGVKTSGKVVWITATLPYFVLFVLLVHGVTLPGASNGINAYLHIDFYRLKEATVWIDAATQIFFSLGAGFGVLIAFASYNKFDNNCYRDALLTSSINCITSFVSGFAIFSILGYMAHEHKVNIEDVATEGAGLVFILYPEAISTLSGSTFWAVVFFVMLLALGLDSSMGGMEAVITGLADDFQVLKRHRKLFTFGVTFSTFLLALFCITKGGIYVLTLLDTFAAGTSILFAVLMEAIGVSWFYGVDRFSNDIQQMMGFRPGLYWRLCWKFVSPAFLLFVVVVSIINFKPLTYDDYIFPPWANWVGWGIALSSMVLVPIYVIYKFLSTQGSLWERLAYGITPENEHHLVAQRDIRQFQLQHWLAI
Sodium-dependent dopamine transporter (Homo sapiens), sequence (Q01959 whole entry): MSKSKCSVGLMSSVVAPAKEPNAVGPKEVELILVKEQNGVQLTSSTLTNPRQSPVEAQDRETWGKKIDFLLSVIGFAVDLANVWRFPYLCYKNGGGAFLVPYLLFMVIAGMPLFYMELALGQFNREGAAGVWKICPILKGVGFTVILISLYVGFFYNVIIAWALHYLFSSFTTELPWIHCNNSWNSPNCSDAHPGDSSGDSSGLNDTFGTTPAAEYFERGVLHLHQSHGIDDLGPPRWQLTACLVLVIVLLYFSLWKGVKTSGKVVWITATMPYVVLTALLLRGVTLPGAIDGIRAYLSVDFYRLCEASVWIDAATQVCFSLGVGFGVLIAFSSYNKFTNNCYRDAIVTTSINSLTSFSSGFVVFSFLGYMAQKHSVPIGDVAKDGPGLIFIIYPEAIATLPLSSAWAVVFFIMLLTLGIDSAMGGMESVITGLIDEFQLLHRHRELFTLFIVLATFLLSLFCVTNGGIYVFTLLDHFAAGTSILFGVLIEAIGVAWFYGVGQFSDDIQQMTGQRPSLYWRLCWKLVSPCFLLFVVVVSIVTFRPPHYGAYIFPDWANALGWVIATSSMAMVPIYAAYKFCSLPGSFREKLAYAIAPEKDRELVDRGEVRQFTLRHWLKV
Sigma non-opioid intracellular receptor 1 (Homo sapiens), sequence (Q99720 whole entry): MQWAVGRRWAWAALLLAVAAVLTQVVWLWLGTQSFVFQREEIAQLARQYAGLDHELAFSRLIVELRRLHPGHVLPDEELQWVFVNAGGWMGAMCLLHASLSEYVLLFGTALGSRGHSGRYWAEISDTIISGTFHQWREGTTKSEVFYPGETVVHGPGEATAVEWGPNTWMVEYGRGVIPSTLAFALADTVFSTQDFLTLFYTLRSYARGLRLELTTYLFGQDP
Sodium-dependent serotonin transporter (Homo sapiens), sequence (P31645 whole entry, looked up): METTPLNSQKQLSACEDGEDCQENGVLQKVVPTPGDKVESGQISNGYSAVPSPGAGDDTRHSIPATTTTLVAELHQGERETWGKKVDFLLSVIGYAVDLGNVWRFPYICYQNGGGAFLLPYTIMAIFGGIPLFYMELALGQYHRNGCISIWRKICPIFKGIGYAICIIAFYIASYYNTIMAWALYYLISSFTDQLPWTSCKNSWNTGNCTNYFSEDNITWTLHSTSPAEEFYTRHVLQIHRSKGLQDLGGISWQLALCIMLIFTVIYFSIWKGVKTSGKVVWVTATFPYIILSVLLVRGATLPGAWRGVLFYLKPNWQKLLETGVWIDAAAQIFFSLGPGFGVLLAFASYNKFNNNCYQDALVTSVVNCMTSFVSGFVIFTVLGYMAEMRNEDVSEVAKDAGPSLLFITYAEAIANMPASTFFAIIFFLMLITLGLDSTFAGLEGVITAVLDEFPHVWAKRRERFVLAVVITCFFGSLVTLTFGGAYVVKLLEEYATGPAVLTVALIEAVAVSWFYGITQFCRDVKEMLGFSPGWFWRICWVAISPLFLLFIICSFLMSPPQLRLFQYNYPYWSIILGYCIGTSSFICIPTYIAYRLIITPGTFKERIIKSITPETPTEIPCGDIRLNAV

Row | Compound | inhibition [1] [%] | inhibition [2] [%] | inhibition [3] [%] | inhibition [4] [%] | inhibition [5] [%] | inhibition [6] [%] | inhibition [7] [%] | inhibition [8] [%] | inhibition [9] [%] | inhibition [10] [%] | inhibition [11] [%] | inhibition [12] [%] | inhibition [13] [%] | inhibition [14] [%] | inhibition [15] [%]
1 | CCOC(=O)c1c(C)[nH]c2ccc3c(c12)CN1CCc2cc(OC)ccc2C1O3 (stereo not given) | 75.4 | 51 | 27.5 | 1.81 | 86.7 | 29.3 | 57.5 | 6.67 | 92.3 | -6.16 | 28.3 | 24.9 | 31 | 82.9 | 4.19
2 | COc1ccc(S(=O)(=O)c2cc(OC)ccc2S(=O)(=O)c2ccc([C@H](C)NS(C)(=O)=O)cc2)cc1 | -2.2 | -0.68 | -4.35 | 0.39 | -4.09 | 23.1 | 15.6 | -7.38 | -3.37 | -6.16 | 25.6 | -5.89 | 6.79 | 18.8 | 1.18
3 | Clc1cccc(COc2cncc(N3CCNCC3)n2)c1 | 97.8 | 20.2 | 26.2 | 29.3 | 33.7 | 96 | 14.4 | 2.44 | 85.7 | 76 | 36.1 | 55.6 | 13.2 | 33.5 | 3.43
4 | COc1cccc([C@@H](C)NCCCc2ccccc2Cl)c1 | -2.74 | 64.6 | 15.5 | 12.6 | 45.1 | 97.4 | 72.6 | 26.1 | 27.2 | 4.34 | 9.42 | 70.6 | 61.2 | 31.1 | 43.9
5 | COc1ccc(OC(F)(F)F)cc1CN[C@H]1CCCN[C@H]1c1ccccc1 | 13.1 | 22.6 | 2.37 | 4.84 | 38.4 | 59.9 | 42.3 | 38.8 | -2.31 | 12.4 | 17.5 | 92.9 | 24.8 | 57.6 | 16.6
